A short description of series [1]: Rate of dissolution in H2O at 25° C. of rebaudioside A polymorph and amorphous forms. The class given is physicochemical.
Series [2] is described as follows: Sensory evaluation of sweetness linger and sugar-like taste by expert panel. The class given is in vivo. Also on record: key: 0=no sweetness linger; 1=very slight sweetness linger; 2=slight sweetness linger; 3=moderate sweetness linger; 4=moderately high sweetness linger; 5=high sweetness linger. The settings on record: for Sweetness Linger rating (defined for the protocol): scale anchors: sucrose, 500 ppm REBA control sample; for Sweetness linger: scale 0-5. The method, then:
In a particular embodiment, a panel of assessors is used to measure the reduction of sweetness linger. Briefly described, a panel of assessors (generally 8 to 12 individuals) is trained to evaluate sweetness perception and measure sweetness at several time points from when the sample is initially taken into the mouth until 3 minutes after it has been expectorated. […] A decrease in score for a time point measured after the sample has cleared the mouth indicates there has been a reduction in sweetness perception.
The panel of assessors may be trained using procedures well known to those of ordinary skill in the art. In a particular embodiment, the panel of assessors may be trained using the Spectrum™ Descriptive Analysis Method (Meilgaard et al, Sensory Evaluation Techniques, 3rd edition Chapter 11). Desirably, the focus of training should be the recognition of and the measure of the basic tastes; specifically, sweet. In order to ensure accuracy and reproducibility of results, each assessor should repeat the measure of the reduction of sweetness linger about three to about five times per sample, taking at least a five minute break between each repetition and/or sample and rinsing well with water to clear the mouth.
Generally, the method of measuring sweetness comprises taking a 10 mL sample into the mouth, holding the sample in the mouth for 5 seconds and gently swirling the sample in the mouth, rating the sweetness intensity perceived at 5 seconds, expectorating the sample (without swallowing following expectorating the sample), rinsing with one mouthful of water (e.g., vigorously moving water in mouth as if with mouth wash) and expectorating the rinse water, rating the sweetness intensity perceived immediately upon expectorating the rinse water, waiting 45 seconds and, while wating those 45 seconds, identifying the time of maximum perceived sweetness intensity and rating the sweetness intensity at that time (moving the mouth normally and swallowing as needed), rating the sweetness intensity after another […], rating the sweetness intensity after another 60 seconds (cumulative 120 seconds after rinse), and rating the sweetness intensity after still another 60 seconds (cumulative 180 seconds after rinse), Between samples take a 5 minute break, rinsing well with water to clear the mouth.
Sensory evaluation of the samples prepared in Example Set G was carried out under the following protocol, similar to that described hereinabove. In this test protocol, none of the samples were swallowed. […] Immediately upon sensing maximal sweetness, the sample was expectorated, the mouth was rinsed with water and the rate of sweetness decay (“Sweetness Linger”) was measured, where attention was focused on the sweetness 3-4 min after the water rinse. […]

A short description of series [3]: Sweetness stated as sucrose equivalent. The series is classed as in vivo.
The format of series [4] is physicochemical. The method, then: A solution of rebaudioside A (>97% pure by HPLC ) was prepared in double distilled water (12.5 gm in 50 mL, 25% concentration) by stirring the mixture at 40° C. for 5 minutes. An amorphous form of rebaudioside A was formed by immediately using the clear solution for spray drying with the Lab-Plant spray drier SD-04 instrument (Lab-Plant Ltd., West Yorkshire, U.K.). The solution was fed through the feed pump into the nozzle atomizer which atomized it into a spray of droplets with the help of a constant flow of nitrogen/air. […] This dry powder (11-12 g, H2O6.74%) was discharged continuously from the drying chamber and was collected in a bottle.

On to `C=C1C[C@@]23CC[C@H]4[C@@](C)(CCC[C@@]4(C)C(=O)O[C@@H]4O[C@H](CO)[C@@H](O)[C@H](O)[C@H]4O)[C@@H]2CC[C@]1(O[C@@H]1O[C@H](CO)[C@@H](O)[C@H](O[C@@H]2O[C@H](CO)[C@@H](O)[C@H](O)[C@H]2O)[C@H]1O[C@@H]1O[C@H](CO)[C@@H](O)[C@H](O)[C@H]1O)C3` [Form 2, rebaudioside A], for which the “Rate of dissolution in H2O at 25° C.” value in series [1] is on record as < 30 %/5 minutes.

With `C=C1C[C@@]23CC[C@H]4[C@@](C)(CCC[C@@]4(C)C(=O)O[C@@H]4O[C@H](CO)[C@@H](O)[C@H](O)[C@H]4O)[C@@H]2CC[C@]1(O[C@@H]1O[C@H](CO)[C@@H](O)[C@H](O[C@@H]2O[C@H](CO)[C@@H](O)[C@H](O)[C@H]2O)[C@H]1O[C@@H]1O[C@H](CO)[C@@H](O)[C@H](O)[C@H]1O)C3` [Form 3, rebaudioside A], in series [1], the “Rate of dissolution in H2O at 25° C.” value is recorded as > 30 %/5 minutes.

In the case of `OC[C@H]1O[C@@](CO)(O[C@H]2O[C@H](CO)[C@@H](O)[C@H](O)[C@H]2O)[C@@H](O)[C@@H]1O` [sucrose], in series [2], the “Sweetness Linger rating (defined for the protocol)” value is reported as 0.

`C=C1C[C@@]23CC[C@H]4[C@@](C)(CCC[C@@]4(C)C(=O)O[C@@H]4O[C@H](CO)[C@@H](O)[C@H](O)[C@H]4O)[C@@H]2CC[C@]1(O[C@@H]1O[C@H](CO)[C@@H](O)[C@H](O[C@@H]2O[C@H](CO)[C@@H](O)[C@H](O)[C@H]2O)[C@H]1O[C@@H]1O[C@H](CO)[C@@H](O)[C@H](O)[C@H]1O)C3` [REBA, rebaudioside A]: the entries for the “Sweetness equivalent to sucrose” value in series [3] (180 ppm rebaudioside A in beverage diluted 1:1 with rebaudioside A/citrate composition) and in series [3] (400 ppm REBA in citric acid/potassium citrate composition) were 5 % sucrose and 8 g sucrose, respectively. Moreover, the Sweetness linger in series [2] (Example Set G: 400 ppm REBA in citric acid/potassium citrate composition equivalent to diet lemon-lime beverage, with additive, sugar control 8 g in 100 ml citrate buffer) is 5; in series [2] (Example Set H: 500 ppm REBA (H41: 360 ppm) in carbon-treated water, phosphoric acid (75%) to pH 2.4-2.5, with additive, sugar control 10 g in 100 ml), 5. The “Sweetness Linger rating (defined for the protocol)” value in series [2] amounted to 5.

Take `C=C1C[C@@]23CC[C@H]4[C@@](C)(CCC[C@@]4(C)C(=O)O[C@@H]4O[C@H](CO)[C@@H](O)[C@H](O)[C@H]4O)[C@@H]2CC[C@]1(O[C@@H]1O[C@H](CO)[C@@H](O)[C@H](O[C@@H]2O[C@H](CO)[C@@H](O)[C@H](O)[C@H]2O)[C@H]1O[C@@H]1O[C@H](CO)[C@@H](O)[C@H](O)[C@H]1O)C3` [Form 1, rebaudioside A]: the “Rate of dissolution in H2O at 25° C.” value in series [1] is < 0.2 %/60 minutes.

As to `C=C1C[C@@]23CC[C@H]4[C@@](C)(CCC[C@@]4(C)C(=O)O[C@@H]4O[C@H](CO)[C@@H](O)[C@H](O)[C@H]4O)[C@@H]2CC[C@]1(O[C@@H]1O[C@H](CO)[C@@H](O)[C@H](O[C@@H]2O[C@H](CO)[C@@H](O)[C@H](O)[C@H]2O)[C@H]1O[C@@H]1O[C@H](CO)[C@@H](O)[C@H](O)[C@H]1O)C3` [Form 4, rebaudioside A], in series [1], the “Rate of dissolution in H2O at 25° C.” value is reported as > 35 %/5 minutes. Also, in series [4], the “Solubility in water at room temperature” value is > 35,0%.

For the origin of these results see patent US20070116839A1, “High-Potency Sweetener Composition With C-Reactive Protein Reducing Substance and Compositions Sweetened Therewith” (THE COCA-COLA COMPANY, priority 2005, published 2007).
